Test results as given in patent US20250195357A1, “CLEAR SCALP COMPOSITION WITH DISCRETE PARTICLES” (The Procter & Gamble Company, priority 2022, published 2025).

How the values were obtained:
[1] = Solubility of scalp actives; assay type: physicochemical
[2] = cited from earlier work

Row | Oil solubility [1] | Water solubility ([1]; at pH of 4.8 and above) | SMILES | Solubility in water [2]
1 | oil soluble | – | CC1CCC(C(C)C)C(O)C1 (stereo not shown) [menthol] | –
2 | oil soluble | – | Cc1cc(CC(C)CC(C)(C)C)n(O)c(=O)c1.NCCO (stereo not shown) [piroctone olamine] | very limited solubility
3 | – | water soluble | O=C(O)c1ccccc1O [salicylic acid] | –
